From paper PMC12389619, “Discovery and Evaluation of Novel Sulfonamide Derivatives Targeting Aromatase in ER+ Breast Cancer” (Pharmaceuticals, 2025) come the findings set out here.

Like-named read-outs stand apart in the source and are kept apart here.

Assay [1] relates to MCF7 human breast cancer cell line. In words: MTT cytotoxicity assay on MCF7. Particulars: read-out: MCF7 IC50. (Tetrazolium dyes change colour on reduction, which living cells bring about.)
Protocol: (§1) MCF7 and NIH3T3 were grown in Dulbecco’s Modified Eagle Medium (DMEM, Sigma-Aldrich, USA); supplemented with 10% fetal bovine serum (Capricorn Scientific, Ebsdorfergrund, Germany) and 1% antibiotics (100 mg/mL of streptomycin and 100 units of penicillin, Sigma-Aldrich, Taufkirchen, Germany); and incubated until confluent at 37 °C in a humidified incubator with a 5% CO2 atmosphere.
(§2) The cytotoxicity assays were performed using the human MCF7, mouse fibroblast NIH3T3, and human non-tumorigenic mammary epithelial MCF12A cell lines in accordance with the MTT procedure previously reported [37, 38].
(§3) The compounds were dissolved in dimethyl sulfoxide (DMSO, AppliChem, Darmstadt, Germany) and diluted to the required concentrations with fresh medium, while the solvent control was prepared with a medium containing 0.1% DMSO. The half-maximal inhibitory concentrations (IC50) of the compounds were determined by calculating the cell viability via the MTT assay. The cells were harvested and counted using an automated cell counter (LUNA II, Logos Biosystems, Gyeonggi, Republic of Korea). […] Following a 24 h incubation period, the MTT solution was added to the wells to a final concentration of 5 mg/mL. The cells were incubated for a 3 h period, after which point the medium was removed and 100 µL of DMSO was added. The absorbances were measured at 540 nm using a MultiMode Plate Reader (BioTek, HTX Synergy, Winooski, Vermont, USA).
The subject of assay [2] is NIH3T3 mouse fibroblast cell line. In words: MTT cytotoxicity assay on NIH3T3. To be noted: read-out: NIH3T3 IC50.
Protocol: as §1, §2, §3
Assay [3] concerns the target T1, Aromatase (CYP19A) (Homo sapiens, UniProt P11511).
T1 sequence (P11511 1-503): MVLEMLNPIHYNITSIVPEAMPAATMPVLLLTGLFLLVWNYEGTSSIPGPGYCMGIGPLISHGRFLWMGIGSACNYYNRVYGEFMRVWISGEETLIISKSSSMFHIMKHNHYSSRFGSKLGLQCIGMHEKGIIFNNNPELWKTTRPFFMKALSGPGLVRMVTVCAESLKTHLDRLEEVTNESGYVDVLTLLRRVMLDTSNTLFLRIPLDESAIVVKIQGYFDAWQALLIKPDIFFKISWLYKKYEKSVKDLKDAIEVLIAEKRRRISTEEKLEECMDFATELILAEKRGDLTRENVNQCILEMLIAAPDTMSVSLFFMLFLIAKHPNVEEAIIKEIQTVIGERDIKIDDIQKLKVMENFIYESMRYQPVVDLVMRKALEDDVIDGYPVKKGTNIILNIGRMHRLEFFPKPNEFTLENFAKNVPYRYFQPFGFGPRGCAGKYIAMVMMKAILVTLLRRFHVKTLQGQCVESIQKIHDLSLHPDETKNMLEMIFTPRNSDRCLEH
Particulars: read-out: Aromatase IC50; means of quartet assays.

Assay [4] has as its target T1, Aromatase (CYP19A). In words: biochemical.
For assay [5], the system named is MCF12A non-tumorigenic mammary cell line. As to the kind of experiment: MTT cell viability on MCF12A. The class given is cell-based, human. Particulars: concentration range 1 mM–1 nM, 24 h. Here is the method: This fact is of crucial importance to the effective and safe treatment of cancer since selectivity refers to the ability of a drug to target cancer cells while minimizing the harm to healthy cells. This targeted approach has the potential to yield more efficacious therapies with a reduced incidence of adverse effects, thereby enhancing patient outcomes.
MCF12A was maintained in DMEM/Ham’s F12 (1:1); supplemented with 5% horse serum, 20 ng/mL of human epidermal growth factor, 0.01 mg/mL of bovine insulin, 500 ng/mL of hydrocortisone, and 100 U/mL (50 µg/mL) of penicillin–streptomycin; and maintained at 37 °C in a humidified atmosphere of 5% CO2.

A word on the IC50: it is the concentration that gives 50% inhibition.

Regarding “4-methyl-N-(2-morpholinethyl)benzenesulfonamide [Compound 16]”, the concentration for half-maximal inhibition (IC50) in assay [1] (MTT, 24 h, means of quartet assays) is 19.6 ± 0.678 µM; in assay [2] (MTT, 24 h, healthy model, means of quartet assays), 50.9 ± 1.51 µM; at Aromatase (CYP19A) [3] it was 0.16 ± 0.006 µM.

For the molecule `O=S(=O)(NCCc1ccccn1)c1ccccc1` [Compound 1, N-(2-(pyridin-2-yl)ethyl)benzenesulfonamide], the 50% inhibitory concentration (IC50) was 7.51 ± 0.296 µM in assay [1] (Homo sapiens, MCF7, 24 h) and 46.9 ± 1.99 µM in assay [2] (Mus musculus, NIH3T3, 24 h).

As for `Cc1ccc(S(=O)(=O)NCCc2ccccn2)cc1` [Compound 2, 4-methyl-N-(2-(pyridin-2-yl)ethyl)benzenesulfonamide], the IC50 at Aromatase (CYP19A) [4] stood at 0.248 ± 0.01 µM; in assay [1] (Homo sapiens, MCF7, 24 h) it was 15.4 ± 0.356 µM; in assay [2] (Mus musculus, NIH3T3, 24 h) it was 51.4 ± 1.74 µM.

Take `Cc1ccc(S(=O)(=O)Nc2ccccn2)cc1` [Compound 3, 4-metyl-N-(pyridin-2-yl)benzenesulfonamide]: the IC50 turned out to be 0.035 ± 0.001 µM against Aromatase (CYP19A) [4]; 2.68 ± 0.104 µM in assay [1] (Homo sapiens, MCF7, 24 h); 64.3 ± 1.83 µM in assay [2] (Mus musculus, NIH3T3, 24 h).

For the molecule `Cc1ccc(S(=O)(=O)Nc2ccc(Cl)cn2)cc1` [Compound 4, N-(5-chloropyridin-2-yl)-4-methylbenzenesulfonamide], the IC50 against Aromatase (CYP19A) [4] is above 100 µM; in assay [1] (Homo sapiens, MCF7, 24 h) it was above 100 µM; in assay [2] (Mus musculus, NIH3T3, 24 h) it was above 100 µM.

As for `Cc1ccc(S(=O)(=O)Nc2ncc(Cl)cc2Cl)cc1` [Compound 5, N-(3,5-dichloropyridin-2-yl)-4-methylbenzenesulfonamide], the 50% inhibitory concentration (IC50) is above 100 µM at Aromatase (CYP19A) [4]; above 100 µM in assay [1] (Homo sapiens, MCF7, 24 h); 76.6 ± 1.13 µM in assay [2] (Mus musculus, NIH3T3, 24 h).

As to `O=S(=O)(Cc1ccccc1)Nc1ncc(Cl)cc1Cl` [Compound 6, N-(3,5-dichloropyridin-2-yl)-1-phenylmethanesulfonamide], the IC50 was above 100 µM against Aromatase (CYP19A) [4]; 25.3 ± 0.945 µM in assay [1] (Homo sapiens, MCF7, 24 h); above 100 µM in assay [2] (Mus musculus, NIH3T3, 24 h).

For the molecule `O=S(=O)(NC1CCN(Cc2ccccc2)CC1)c1ccccc1` [Compound 7, N-(1-benzylpiperidin-4-yl)benzenesulfonamide], the IC50 against Aromatase (CYP19A) [4] is above 1000 µM; in assay [1] (Homo sapiens, MCF7, 24 h), 28.5 ± 0.514 µM; in assay [2] (Mus musculus, NIH3T3, 24 h) it was 44.3 ± 1.05 µM.

For the molecule `Cc1ccc(S(=O)(=O)NC2CCN(Cc3ccccc3)CC2)cc1` [Compound 8, N-(1-benzylpiperidin-4-yl)-4-methylbenzenesulfonamide], the IC50 against Aromatase (CYP19A) [4] is above 1000 µM; in assay [1] (Homo sapiens, MCF7, 24 h), above 100 µM; in assay [2] (Mus musculus, NIH3T3, 24 h), above 100 µM.

For the molecule `O=S(=O)(NCCN1CCCCC1)c1ccccc1` [Compound 9, N-(2-(piperidin-1-yl)ethyl)benzenesulfonamide], the “effect on MCF12A cell viability” value in assay [5] was “no effects”. For the same molecule, the IC50 in assay [1] (Homo sapiens, MCF7, 24 h) was found to be 3.29 ± 0.119 µM; in assay [2] (Mus musculus, NIH3T3, 24 h), 58.2 ± 0.952 µM.

`O=S(=O)(Cc1ccccc1)NCCN1CCCCC1` [Compound 10, 1-phenyl-N-(2-(piperidin-1-yl)ethyl)methanesulfonamide]: the IC50 against Aromatase (CYP19A) [4] amounted to 0.052 ± 0.002 µM; in assay [1] (Homo sapiens, MCF7, 24 h), 6.2 ± 0.258 µM; in assay [2] (Mus musculus, NIH3T3, 24 h) it was 30.9 ± 1.03 µM.

As for `Cc1ccc(S(=O)(=O)NCCN2CCCCC2)cc1` [Compound 11], the IC50 in assay [1] (Homo sapiens, MCF7, 24 h) came to 43.6 ± 1.86 µM; in assay [2] (Mus musculus, NIH3T3, 24 h) it was 29.6 ± 0.812 µM.

`Cc1ccc(S(=O)(=O)NCCCN2CCCC2)cc1` [Compound 12, 4-methyl-N-(3-(pyrrolidin-1-yl)propyl)benzenesulfonamide]: the IC50 was above 1000 µM against Aromatase (CYP19A) [4]; 32.1 ± 1.17 µM in assay [1] (Homo sapiens, MCF7, 24 h); above 100 µM in assay [2] (Mus musculus, NIH3T3, 24 h).

In the case of `CN1CCCC1CCNS(=O)(=O)c1ccccc1` (stereo not drawn) [Compound 13, N-(2-(1-methylpyrrolidin-2-yl)ethyl)benzenesulfonamide], the IC50 in assay [1] (Homo sapiens, MCF7, 24 h) was found to be 8.06 ± 0.319 µM; in assay [2] (Mus musculus, NIH3T3, 24 h) it was 49.6 ± 1.73 µM.

For the molecule `Cc1ccc(S(=O)(=O)NCCC2CCCN2C)cc1` (stereo not drawn) [Compound 14, 4-methyl-N-(2-(1-methylpyrrolidin-2-yl)ethyl)benzenesulfonamide], the IC50 on Aromatase (CYP19A) [4] was 0.051 ± 0.001 µM; in assay [1] (Homo sapiens, MCF7, 24 h), 10.5 ± 0.477 µM; in assay [2] (Mus musculus, NIH3T3, 24 h) it was 56.1 ± 1.93 µM.

On to `O=S(=O)(NCCN1CCOCC1)c1ccccc1` [Compound 15, N-(2-morpholinethyl)benzenesulfonamide], for which the IC50 amounted to 12.4 ± 0.417 µM in assay [1] (Homo sapiens, MCF7, 24 h) and 39.3 ± 0.995 µM in assay [2] (Mus musculus, NIH3T3, 24 h).

In the case of `O=S(=O)(Cc1ccccc1)NCCN1CCOCC1` [Compound 17, N-(2-morpholinoethyl)-1-phenylmethanesulfonamide], the concentration for half-maximal inhibition (IC50) at Aromatase (CYP19A) [4] was found to be 0.206 ± 0.009 µM; in assay [1] (Homo sapiens, MCF7, 24 h), 14.6 ± 0.522 µM; in assay [2] (Mus musculus, NIH3T3, 24 h), 43.1 ± 1.03 µM.

Regarding `COc1cccc2c1C(=O)c1c(O)c3c(c(O)c1C2=O)C[C@@](O)(C(=O)CO)C[C@@H]3O[C@H]1C[C@H](N)[C@H](O)[C@H](C)O1` [Doxorubicin, reference compound], the IC50 in assay [2] (Mus musculus, NIH3T3, 24 h) is above 100 µM.
